From patent publication US12227500B2, “Substituted pyrrolo[2,3-b]pyridines for suppressing toxic endoplasmic reticulum stress” (THE TRUSTEES OF COLUMBIA UNIVERSITY IN THE CITY OF NEW YORK, priority 2018, dated 2025)
pEC50: −log10 of the molar value.

Legend:
[1] = tested on: human ES motor neurons carrying the ALS-causing SOD1^A4V mutation; assay: cells; assay type: cell-based; details: Homo sapiens, Neuron, 72 h, 72 h; for pEC50 / Emax: CPA 33 μM; for pEC50: read-out: EC50; for viability at 1 µM: CPA (33 μM) + compound (1 μM), read-out: Motor Neuron Survival, % untreated; for Emax: read-out: Emax (MN survival % untreated)
Method: Next, survival assays were performed with all the analogs at once to generate a low-variability dataset. All compounds were evaluated at concentrations ranging from 0.1-3.0 μM (five-point dilution) in three technical replicates and two biological replicates.

MLK3/MAP3K11 = biological target: T1, MLK3/MAP3K11 (Homo sapiens, UniProt Q16584); assay: Radiolabeled ATP kinase assay (Reaction Biology Corp.), MLK3; assay type: biochemical; details: [Cmpd] 0.1 μM; 10 μM ATP
T1 construct: purchased Reaction Biology Corp
Method: (§1) Meanwhile, the same analogs were analyzed in a radiolabeled ATP assay (10 μM ATP; Reaction Biology Corp.) to compare the extent to which they could inhibit the activity of HGK, MLK1, or MLK3 in a cell-free environment (Table S3 and S4).

in vitro = details: CD-1, mouse, liver microsomes, pH 7.4
Method: To test the metabolic stability of the analogs, an in vitro microsomal stability assay was carried out.
The microsomal stability assay was performed in 96-well format (Perkin-Elmer, StorPlate-96U, PP, 96 well, round bottom). […] A stock solution of the compound to be analyzed (0.8 μL. 5 mM) or ethoxycoumarin (positive control, 0.8 μL, 5 mM) was added and the mixture was warmed to 37° C. for 5 minutes. The mouse microsomes (CD-1, 5 μL, thawed in a 37° C. water bath before use, 20 mg/mL, Life Technologies) were added. At selected time points (0, 15, 30, 45, 60 and 120 minutes) aliquots (15 μL) were withdrawn from the plate and quenched upon addition to cold acetonitrile (60 μL), containing an internal standard (5 μM) in a 96-well plate. The samples were centrifuged at 13,000 rpm for 10 minutes at 4° C. The supernatant (40 μL) was withdrawn and transferred to a sample vial with insert. The samples were analyzed by LC-MS.
LC-MS analysis was performed on a platform comprising a Thermo Scientific Dionex Ultimate 3000 and a Bruker amaZon SL equipped with an electrospray ionization source controlled by Bruker Hystar 3.2. […] The flow rate was maintained at 400 μL/min. The initial flow conditions were 60% solvent A (water containing 0.1% acetic acid) and 40% solvent B (methanol containing 0.1% acetic acid).
Aliquots were taken over the course of two hours and analyzed by HPLG-MS using an internal standard to assess compound stability over time.

[2] = biological target: T2, panel of 60 human kinases (Homo sapiens, UniProt P53779); assay: Radiolabeled ATP kinase assay, panel of 60 kinases (Table S5); assay type: biochemical; details: JNK3; 0.1 μM; 10 μM ATP; read-out: % Enzyme Activity (relative to DSMO controls)
T2 construct: purchased Reaction Biology Corp
Method in brief: (§2)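 Cell-free radiolabeled-ATP kinase assays across a panel of 60 kinases; each compound tested at 0.1 μM and 0.5 μM for inhibition.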

[3] = biological target: T3, panel of 60 human kinases (Homo sapiens, UniProt O60285); assay: as above; assay type: biochemical; details: ARK5/NUAK1; 0.1 μM; 10 μM ATP; read-out: % Enzyme Activity (relative to DSMO controls)
T3 construct: purchased Reaction Biology Corp
T3 sequence (O60285 1-661): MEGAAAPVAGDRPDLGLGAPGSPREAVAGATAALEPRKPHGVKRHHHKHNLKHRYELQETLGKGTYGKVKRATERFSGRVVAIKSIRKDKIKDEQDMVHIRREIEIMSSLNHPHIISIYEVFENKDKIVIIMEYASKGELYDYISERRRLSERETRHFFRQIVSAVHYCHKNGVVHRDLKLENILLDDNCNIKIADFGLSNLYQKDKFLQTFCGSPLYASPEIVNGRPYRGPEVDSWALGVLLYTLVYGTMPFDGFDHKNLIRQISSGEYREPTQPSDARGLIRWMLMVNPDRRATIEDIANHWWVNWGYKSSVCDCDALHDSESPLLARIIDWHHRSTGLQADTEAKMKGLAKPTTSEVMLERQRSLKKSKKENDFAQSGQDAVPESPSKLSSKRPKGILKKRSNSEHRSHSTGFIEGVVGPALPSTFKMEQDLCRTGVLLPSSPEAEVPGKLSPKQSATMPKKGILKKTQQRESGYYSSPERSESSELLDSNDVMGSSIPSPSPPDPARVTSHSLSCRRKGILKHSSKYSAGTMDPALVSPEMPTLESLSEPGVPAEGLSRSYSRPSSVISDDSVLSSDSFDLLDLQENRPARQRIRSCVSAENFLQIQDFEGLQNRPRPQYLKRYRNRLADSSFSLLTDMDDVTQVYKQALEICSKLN
Method in brief: as §2

[4] = biological target: T4, panel of 60 human kinases (Homo sapiens, UniProt P21802); assay: as above; assay type: biochemical; details: FGFR2; 0.1 μM; 10 μM ATP; read-out: % Enzyme Activity (relative to DSMO controls)
T4 construct: purchased Reaction Biology Corp
Method in brief: as §2

[5] = biological target: T5, panel of 60 human kinases (Homo sapiens, UniProt Q9UQB9); assay: as above; assay type: biochemical; details: Aurora C; 0.1 μM; 10 μM ATP; read-out: % Enzyme Activity (relative to DSMO controls)
T5 construct: purchased Reaction Biology Corp
T5 sequence (Q9UQB9 1-309): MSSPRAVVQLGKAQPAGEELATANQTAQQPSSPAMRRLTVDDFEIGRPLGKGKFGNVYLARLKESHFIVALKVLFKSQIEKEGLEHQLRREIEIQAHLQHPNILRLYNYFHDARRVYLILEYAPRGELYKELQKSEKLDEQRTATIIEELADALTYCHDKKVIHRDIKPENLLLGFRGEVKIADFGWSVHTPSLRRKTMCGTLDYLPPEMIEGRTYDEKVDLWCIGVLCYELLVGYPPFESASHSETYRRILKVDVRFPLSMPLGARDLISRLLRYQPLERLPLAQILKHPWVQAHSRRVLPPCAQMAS
Method in brief: as §2

[6] = biological target: T6, panel of 60 human kinases (Homo sapiens, UniProt Q9UM73); assay: as above; assay type: biochemical; details: ALK; 0.1 μM; 10 μM ATP; read-out: % Enzyme Activity (relative to DSMO controls)
T6 construct: purchased Reaction Biology Corp
Method in brief: as §2

[7] = biological target: T7, panel of 60 human kinases (Homo sapiens, UniProt O15264); assay: as above; assay type: biochemical; details: P38d/MAPK13; 0.1 μM; 10 μM ATP; read-out: % Enzyme Activity (relative to DSMO controls)
T7 construct: purchased Reaction Biology Corp
T7 sequence (O15264 1-365): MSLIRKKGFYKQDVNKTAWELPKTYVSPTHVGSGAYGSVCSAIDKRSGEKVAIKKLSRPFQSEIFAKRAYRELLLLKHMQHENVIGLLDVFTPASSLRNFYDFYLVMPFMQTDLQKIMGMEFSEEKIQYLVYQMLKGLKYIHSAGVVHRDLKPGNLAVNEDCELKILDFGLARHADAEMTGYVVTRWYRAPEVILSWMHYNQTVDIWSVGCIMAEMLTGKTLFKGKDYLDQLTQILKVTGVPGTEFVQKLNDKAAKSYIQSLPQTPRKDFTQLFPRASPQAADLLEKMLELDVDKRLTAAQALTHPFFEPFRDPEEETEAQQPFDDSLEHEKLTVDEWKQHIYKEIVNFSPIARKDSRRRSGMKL
Method in brief: as §2

[8] = biological target: T8, panel of 60 human kinases (Homo sapiens, UniProt Q16539); assay: as above; assay type: biochemical; details: P38a/MAPK14; 0.1 μM; 10 μM ATP; read-out: % Enzyme Activity (relative to DSMO controls)
T8 construct: purchased Reaction Biology Corp
Method in brief: as §2

HGK/MAP4K4 = HGK/MAP4K4 (Homo sapiens, UniProt O95819); assay: Radiolabeled ATP kinase assay (Reaction Biology Corp.), HGK; assay type: biochemical; parameters: purchased Reaction Biology Corp; details: 10 μM ATP, read-out: % Enzyme Activity (relative to DMSO controls), HGK/MAP4K4, Data 1; for remaining activity at 0.025 µM: [Cmpd] 0.025 μM; for remaining activity at 0.1 µM: [Cmpd] 0.1 μM
Method: as §1

T1 sequence (Q16584 whole entry): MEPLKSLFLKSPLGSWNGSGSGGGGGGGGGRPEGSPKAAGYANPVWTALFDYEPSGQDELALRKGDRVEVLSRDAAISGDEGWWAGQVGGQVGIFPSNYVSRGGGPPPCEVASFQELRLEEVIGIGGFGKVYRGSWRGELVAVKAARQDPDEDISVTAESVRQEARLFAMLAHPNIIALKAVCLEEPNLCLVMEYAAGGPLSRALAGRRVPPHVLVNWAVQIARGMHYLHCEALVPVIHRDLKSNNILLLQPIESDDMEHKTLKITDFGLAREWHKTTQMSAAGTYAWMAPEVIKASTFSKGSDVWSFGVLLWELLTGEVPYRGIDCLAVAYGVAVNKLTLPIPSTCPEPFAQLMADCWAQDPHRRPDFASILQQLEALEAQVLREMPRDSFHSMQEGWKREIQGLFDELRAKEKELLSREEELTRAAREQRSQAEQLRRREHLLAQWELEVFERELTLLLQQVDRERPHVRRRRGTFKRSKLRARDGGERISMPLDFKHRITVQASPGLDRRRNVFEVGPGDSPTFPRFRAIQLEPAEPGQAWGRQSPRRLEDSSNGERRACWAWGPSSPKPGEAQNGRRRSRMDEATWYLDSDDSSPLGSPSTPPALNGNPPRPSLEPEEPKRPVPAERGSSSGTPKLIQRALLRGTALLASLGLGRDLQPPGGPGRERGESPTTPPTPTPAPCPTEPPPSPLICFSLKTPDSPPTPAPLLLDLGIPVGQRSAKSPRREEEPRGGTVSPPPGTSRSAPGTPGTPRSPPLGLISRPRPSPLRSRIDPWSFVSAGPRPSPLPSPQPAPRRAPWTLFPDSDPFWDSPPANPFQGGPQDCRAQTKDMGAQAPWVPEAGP
Chain of HGK/MAP4K4 (O95819 whole entry): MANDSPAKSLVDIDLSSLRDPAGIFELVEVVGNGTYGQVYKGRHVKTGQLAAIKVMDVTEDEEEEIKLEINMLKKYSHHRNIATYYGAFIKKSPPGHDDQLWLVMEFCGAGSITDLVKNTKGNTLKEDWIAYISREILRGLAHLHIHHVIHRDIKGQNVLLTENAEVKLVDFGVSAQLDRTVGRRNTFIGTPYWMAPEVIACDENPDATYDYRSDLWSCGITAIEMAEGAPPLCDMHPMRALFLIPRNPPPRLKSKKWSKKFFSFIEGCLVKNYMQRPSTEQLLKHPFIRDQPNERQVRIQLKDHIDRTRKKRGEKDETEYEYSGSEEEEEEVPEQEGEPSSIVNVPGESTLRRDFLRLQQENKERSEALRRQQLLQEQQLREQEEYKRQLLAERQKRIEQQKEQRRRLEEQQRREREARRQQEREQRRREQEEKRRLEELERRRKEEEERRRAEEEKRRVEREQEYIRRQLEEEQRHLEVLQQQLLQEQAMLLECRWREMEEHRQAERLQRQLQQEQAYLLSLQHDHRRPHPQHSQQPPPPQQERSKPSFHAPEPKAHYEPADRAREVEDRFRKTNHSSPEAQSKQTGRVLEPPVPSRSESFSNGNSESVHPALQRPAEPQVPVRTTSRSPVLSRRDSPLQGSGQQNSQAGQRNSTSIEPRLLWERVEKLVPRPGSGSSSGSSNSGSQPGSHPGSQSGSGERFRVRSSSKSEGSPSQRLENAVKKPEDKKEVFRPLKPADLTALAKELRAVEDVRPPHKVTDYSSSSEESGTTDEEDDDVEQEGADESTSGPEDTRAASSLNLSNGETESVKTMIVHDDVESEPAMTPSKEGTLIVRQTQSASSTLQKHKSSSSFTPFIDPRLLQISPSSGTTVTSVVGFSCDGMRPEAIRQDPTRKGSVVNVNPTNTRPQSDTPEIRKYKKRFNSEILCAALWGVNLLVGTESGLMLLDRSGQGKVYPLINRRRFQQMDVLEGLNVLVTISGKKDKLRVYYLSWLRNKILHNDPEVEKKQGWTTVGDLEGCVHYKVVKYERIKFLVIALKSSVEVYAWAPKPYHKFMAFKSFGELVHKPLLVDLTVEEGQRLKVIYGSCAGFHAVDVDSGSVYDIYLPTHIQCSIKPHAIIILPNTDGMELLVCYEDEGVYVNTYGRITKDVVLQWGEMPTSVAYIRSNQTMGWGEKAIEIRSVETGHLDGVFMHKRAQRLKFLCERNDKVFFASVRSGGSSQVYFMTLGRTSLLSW
T4 sequence (P21802 22-821): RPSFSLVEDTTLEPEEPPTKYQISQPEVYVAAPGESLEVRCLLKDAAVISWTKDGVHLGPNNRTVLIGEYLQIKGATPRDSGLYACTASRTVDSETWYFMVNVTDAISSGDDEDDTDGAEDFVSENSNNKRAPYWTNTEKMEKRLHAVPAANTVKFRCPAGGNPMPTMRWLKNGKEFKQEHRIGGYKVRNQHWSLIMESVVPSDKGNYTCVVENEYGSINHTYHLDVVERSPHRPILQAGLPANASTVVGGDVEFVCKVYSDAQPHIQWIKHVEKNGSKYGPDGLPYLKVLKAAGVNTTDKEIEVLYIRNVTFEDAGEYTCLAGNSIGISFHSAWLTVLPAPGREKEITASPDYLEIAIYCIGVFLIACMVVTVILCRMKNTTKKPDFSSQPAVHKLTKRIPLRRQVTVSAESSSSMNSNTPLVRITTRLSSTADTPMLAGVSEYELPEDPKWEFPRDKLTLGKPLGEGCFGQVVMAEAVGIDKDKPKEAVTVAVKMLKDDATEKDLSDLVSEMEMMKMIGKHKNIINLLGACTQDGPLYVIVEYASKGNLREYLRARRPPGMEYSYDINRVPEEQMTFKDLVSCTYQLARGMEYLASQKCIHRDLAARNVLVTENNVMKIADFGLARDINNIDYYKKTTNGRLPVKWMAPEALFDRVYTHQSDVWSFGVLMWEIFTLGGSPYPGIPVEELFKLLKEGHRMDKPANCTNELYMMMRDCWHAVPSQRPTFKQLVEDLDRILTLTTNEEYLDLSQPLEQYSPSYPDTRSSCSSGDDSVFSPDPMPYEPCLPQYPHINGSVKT
T6 sequence (Q9UM73 19-1620): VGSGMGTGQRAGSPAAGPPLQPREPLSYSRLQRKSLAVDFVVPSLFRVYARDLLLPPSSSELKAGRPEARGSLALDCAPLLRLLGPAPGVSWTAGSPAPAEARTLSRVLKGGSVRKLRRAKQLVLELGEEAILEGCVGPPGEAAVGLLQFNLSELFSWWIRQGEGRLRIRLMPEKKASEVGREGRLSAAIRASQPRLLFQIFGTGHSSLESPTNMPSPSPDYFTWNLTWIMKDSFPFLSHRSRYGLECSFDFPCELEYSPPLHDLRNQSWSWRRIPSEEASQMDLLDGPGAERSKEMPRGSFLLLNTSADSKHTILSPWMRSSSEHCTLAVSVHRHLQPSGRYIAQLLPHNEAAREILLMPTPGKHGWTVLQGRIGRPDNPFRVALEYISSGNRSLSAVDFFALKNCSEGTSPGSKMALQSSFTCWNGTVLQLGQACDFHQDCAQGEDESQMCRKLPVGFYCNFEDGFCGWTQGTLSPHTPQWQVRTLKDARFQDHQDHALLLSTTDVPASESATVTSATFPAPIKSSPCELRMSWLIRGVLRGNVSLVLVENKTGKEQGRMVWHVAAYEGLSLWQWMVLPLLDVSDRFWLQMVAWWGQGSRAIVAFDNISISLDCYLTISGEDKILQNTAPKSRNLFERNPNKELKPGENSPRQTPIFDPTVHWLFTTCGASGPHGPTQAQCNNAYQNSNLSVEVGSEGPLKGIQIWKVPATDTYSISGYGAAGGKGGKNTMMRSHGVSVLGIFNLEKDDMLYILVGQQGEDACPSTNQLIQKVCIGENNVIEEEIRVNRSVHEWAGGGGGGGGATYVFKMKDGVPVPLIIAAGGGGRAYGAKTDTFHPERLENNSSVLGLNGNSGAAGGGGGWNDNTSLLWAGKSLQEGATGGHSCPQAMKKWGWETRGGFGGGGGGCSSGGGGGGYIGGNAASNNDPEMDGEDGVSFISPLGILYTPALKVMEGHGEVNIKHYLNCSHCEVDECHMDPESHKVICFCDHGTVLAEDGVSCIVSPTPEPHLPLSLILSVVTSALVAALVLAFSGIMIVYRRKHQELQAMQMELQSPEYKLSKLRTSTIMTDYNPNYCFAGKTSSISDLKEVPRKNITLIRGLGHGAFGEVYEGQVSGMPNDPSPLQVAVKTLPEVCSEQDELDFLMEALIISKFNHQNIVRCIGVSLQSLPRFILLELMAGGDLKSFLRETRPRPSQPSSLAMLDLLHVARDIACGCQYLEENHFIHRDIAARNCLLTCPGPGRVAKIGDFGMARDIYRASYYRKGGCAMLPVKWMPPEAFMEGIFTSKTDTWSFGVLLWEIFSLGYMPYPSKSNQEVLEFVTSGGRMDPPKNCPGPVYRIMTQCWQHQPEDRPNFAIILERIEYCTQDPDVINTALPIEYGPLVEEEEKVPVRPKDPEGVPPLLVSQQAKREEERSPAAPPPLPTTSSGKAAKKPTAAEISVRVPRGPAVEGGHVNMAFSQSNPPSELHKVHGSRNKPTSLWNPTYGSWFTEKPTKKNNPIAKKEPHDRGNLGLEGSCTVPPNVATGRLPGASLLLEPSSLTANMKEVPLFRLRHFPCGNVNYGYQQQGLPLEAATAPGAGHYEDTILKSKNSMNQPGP
T8 sequence (Q16539 whole entry): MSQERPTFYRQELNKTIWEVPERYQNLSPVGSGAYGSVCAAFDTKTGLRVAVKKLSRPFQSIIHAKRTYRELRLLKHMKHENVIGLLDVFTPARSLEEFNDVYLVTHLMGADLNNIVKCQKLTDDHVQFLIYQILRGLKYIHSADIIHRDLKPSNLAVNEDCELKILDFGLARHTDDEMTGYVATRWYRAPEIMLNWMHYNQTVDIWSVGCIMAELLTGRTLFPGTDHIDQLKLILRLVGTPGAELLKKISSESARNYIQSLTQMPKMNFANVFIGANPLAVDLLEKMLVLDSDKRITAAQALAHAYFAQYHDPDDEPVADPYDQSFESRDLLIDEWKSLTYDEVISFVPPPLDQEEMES

Row | SMILES | pEC50 [1] | viability at 1 µM [1] [%] | Emax [1] [%] | % Enzyme Activity Remaining (relative to DMSO controls), MLK3/MAP3K11, Data 1 (MLK3/MAP3K11) [%] | % Enzyme Activity Remaining (relative to DMSO controls), MLK3/MAP3K11, Data 2 (MLK3/MAP3K11) [%] | half-life at 20 μM (in vitro) [min] | remaining activity at 0.1 µM [2] [%] | remaining activity at 0.1 µM [3] [%] | remaining activity at 0.1 µM [4] [%] | remaining activity at 0.1 µM [5] [%] | remaining activity at 0.1 µM [6] [%] | remaining activity at 0.1 µM [7] [%] | remaining activity at 0.1 µM [8] [%] | remaining activity at 0.025 µM (HGK/MAP4K4) [%] | remaining activity at 0.1 µM (HGK/MAP4K4) [%]
1 | CN1CCN(Cc2ccc(-c3cnc4[nH]cc(-c5cccc(Cl)c5)c4c3)cc2)CC1 [Compound 7ad, 3-(3-Chlorophenyl)-5-(4-((4-methylpiperazin-1-yl)methyl)phenyl)-1H-pyrrolo[2,3-b]pyridine] | 6.54 | 87.7 | 87.7 | 37.50 | 38.21 | > 30 | 106 | 22.4 | 77.6 | 104 | 108 | 119 | 105 | 8.51 | 2.92
2 | COc1ccccc1-c1c[nH]c2ncc(-c3ccc(CN4CCN(C)CC4)cc3)cc12 [Compound 7at, 3-(2-Methoxyphenyl)-5-(4-((4-methylpiperazin-1-yl)methyl)phenyl)-1H-pyrrolo[2,3-b]pyridine] | 6.53 | 67.5 | 85 | 24.55 | 21.30 | > 30 | 104 | 22.9 | 83.4 | 107 | 77.8 | 104 | 96.2 | 29.3 | 4.83
